Patent publication EP4610271B1, “SELF-ASSEMBLING POLYPEPTIDE AND USE THEREOF” (Success Bio-Tech Co., Ltd., priority 2023, dated 2026)

Tests used:
[1] = Neutralisation of peptide solution by mixing with DMEM medium, pH measured; format: physicochemical; conditions: for neutralization of acidity by mixing with DMEM medium: 2.5% w/v peptide solution
Description: As mentioned above, peptide solutions with relatively high concentrations (over 2% w/v) cannot be pre-adjusted to neutral pH before mixing with the cell suspension, and the acidity may be harmful to the cells. […] Therefore, despite the acidic nature of the 2.5% concentration solution, PRRVDP13 may still be used as a cell culture scaffold. The experimental methods are as follows. In a centrifuge tube, 1.5 mL of a 2.5% w/v self-assembling peptide solution was mixed with 1.5 mL of DMEM medium, and after gelation, additional medium was added to make a total volume of […], with a final peptide-to-medium ratio of 1:3. Alternatively, 1.5 mL of a 2.5% self-assembling peptide solution was mixed with 1.5 mL of DMEM medium to achieve a peptide-to-DMEM medium ratio of 1:1. The pH value of each group was then measured.

[2] = Liquid-to-solid phase transition triggered by PBS; format: physicochemical; conditions: 2.5% w/v solution, about 1-fold PBS, FIG. 8
Description: (§1) The experimental methods are as follows. Peptide was prepared as a 1 mL solution with a concentration of 2.5% w/v. 100 µL of a 10-fold concentration PBS buffer was added and thoroughly mixed to make the final solution as approximately 1-fold PBS to trigger gelation. The gel strength, which is related to hemostatic ability, is usually represented by the storage modulus G'. […]. The experimental methods are as follows. 3 mL of a 2.5% w/v solution of each peptide was prepared using water for injection and then 600 µL of a 5-fold concentration PBS buffer was added in to trigger gel formation. A suitable amount of gel was placed on the rheometer testing stage, with the setting of the stress of the rheometer at 1 Pa, and the scanning frequency range from 0.1 to 10 Hz to measure the storage modulus G' and loss modulus G" of the gel. To measure the viscosity of the peptide solutions, each peptide was prepared into a 2.5% w/v solution using water for injection, and a creep scan was performed using a rheometer at shear rates ranging from 0.001S^-1 to 1000S^-1 to obtain viscosity data for each peptide solution, as shown in FIGs. 7D-7F.

L929 cells [3] = experiment: Cell proliferation on pre-formed peptide gel (CCK-8 assay); format: cell-based; conditions: gel of 2.5% w/v peptide solution and equal volume of DMEM, about 48 hours, CCK-8, FIGs. 4 and 5
Description: To test the biocompatibility of ISAPs, 60 µL of a 2.5% w/v peptide solution was mixed with an equal volume of DMEM medium in a cell culture plate to form a gel. Then, 120 µL of the aforementioned 1×10^5 cells/mL L929 cell suspension was loaded onto the pre-formed gel. […]. […] The cell proliferation assay was performed after culturing the cells in a cell incubator at an atmosphere of 5% CO2 for approximately 48 hours using a CCK-8 assay kit (Beyotime, C0038). For the PRRVDP13 peptide, the cell suspension was directly mixed with the peptide solution, and after the liquid-to-solid phase transition, cells were evenly distributed within the gel. The methods are as follows. 60 µL of the aforementioned L929 cell suspension of 1×10^5 cells/mL and 60 µL of PRRVDP13 peptide were added to a 96-well culture plate. After gelation, 120 µL of culture medium was added for cell culture. After approximately 48 hours of incubation in a cell incubator at an atmosphere of 5% CO2, cells were observed directly using a microscope or observed using a fluorescence microscope following staining with Calcein-AM and PI (Beyotime, C2015S) according to the manufacturer's instructions.

[4] = Rheometer measurement of gel storage modulus G' and loss modulus G"; format: physicochemical; conditions: 2.5% w/v gel triggered by PBS, compared to RADA16 and PRVDP9, FIGs. 7A-7C
Description: as §1

[5] = State of peptide solution (solution or gel) on pH adjustment with NaHCO3; format: physicochemical; conditions: for State of Peptide Under Different pH Conditions: gel: pH at which the peptide is a gel; for State of Peptide Under Different pH Conditions: solution: pH at which the peptide is a solution; for pH needed to stay in solution: typical value, concentration not stated (background, inventor's study)
Description: (§2) Unless otherwise specified, the solutions in this example refer to aqueous solutions prepared using purified water or sterile water as the solvent. Based on the AC-PRVDVRVDP-NH2 provided previously, the peptides AC-KLNLKLNLNL-NH2, AC-PRVDVRVKVRVDP-NH2, and AC-RADMSRADMS-NH2 were screened. The above-mentioned peptides were formulated into a 1 mL 2.5% w/v solution, to which 100 µL of 10-fold concentration PBS buffer was added and thoroughly mixed to achieve a final solution of approximately 1-fold PBS. […] Based on this, a similar sequence with liquid-solid phase transition capability, AC-PRVDVRVRVRVDP-NH2 (PRRVDP13), was further designed. At a concentration of 1% w/v, the pH of the two peptide solutions could be pre-adjusted to a certain level using a dropwise addition of 1% w/v NaHCO3 and shaking, without the peptide solution turning into a gel for several hours. However, at a concentration of 2% w/v, when the pH increased to around 3 using a dropwise addition of 1% w/v NaHCO3 and shaking, the peptide solution quickly turned into a gel. The classical sequence RADA16 and the original sequence PRVDP9 needed to be maintained under acidic conditions even at a lower concentration of 1% w/v to keep them in solution state. Otherwise, the solution would turn into a gel, and the color would turn white as the pH increased.

L929 cells [6] = experiment: 3D cell culture in peptide gel, microscopy and Calcein-AM/PI staining; format: cell-based; conditions: L929 cell suspension mixed directly with peptide solution, about 48 hours, FIG. 6
Description: One potential application of ISAPs is to use them as scaffolds for supporting 3D cell culture. To validate their suitability as a 3D cell culture scaffold, L929 cells (purchased from the Kunming Cell Bank of the Chinese Academy of Sciences) that had been cultured for 48-72 hours and were in a vigorous growth phase were digested and then mixed with serum-containing DMEM medium for cell counting. The cell suspension was prepared at a concentration of 1×10^5 cells/mL with serum-containing DMEM medium. The cell suspension was mixed with the peptide in a specific ratio (60 µL:60 µL) and added to a 96-well culture plate. After gelation, 120 µL of serum-containing DMEM medium was added for cell culture. In this example, the ISAP solution was mixed with the cell suspension or cell culture medium to study their biocompatibility.
To test the biocompatibility of ISAPs, 60 µL of a 2.5% w/v peptide solution was mixed with an equal volume of DMEM medium in a cell culture plate to form a gel. Then, 120 µL of the aforementioned 1×10^5 cells/mL L929 cell suspension was loaded onto the pre-formed gel. 4 and 5. […] After approximately 48 hours of incubation in a cell incubator at an atmosphere of 5% CO2, cells were observed directly using a microscope or observed using a fluorescence microscope following staining with Calcein-AM and PI (Beyotime, C2015S) according to the manufacturer's instructions.

New Zealand rabbits = experiment: Liver wound hemostasis model; format: in vivo
Source text: The animal (New Zealand rabbits) was anesthetized by 2% sodium pentobarbital via ear vein injection. The animal was then fixed in a supine position on the operating table. The abdominal fur was shaved, and the area was sterilized. A standard midline incision was made, and the left lobe of liver was exposed by dissecting the liver. A sterile gauze was placed beneath the liver. A 1.0 cm long and 0.3 cm deep wound was created on the liver lobe, and the wound was wiped with gauze. The test sample (approximately 1 mL) was injected deeply onto the wound until the entire wound area was covered. The hemostatic effect was observed and the hemostasis time was recorded.

[7] = Screening of dissolution and gel formation on mixing with PBS or DMEM; format: physicochemical; conditions: 2.5% w/v solution mixed with 10-fold PBS (final about 1-fold) or equal volume of DMEM
Description: as §2

neutralization of acidity by mixing with DMEM medium [1]	pH of the peptide-DMEM mixture ([1]; 2.5% w/v, same volume ratio (1:1 or 1:3), compared with PRVDP9 and RADA16, FIG. 3)	mechanical properties (storage modulus G') [4]	State of Peptide Under Different pH Conditions: gel ([5]; concentration 1% w/v)	State of Peptide Under Different pH Conditions: gel ([5]; concentration 2% w/v)	State of Peptide Under Different pH Conditions: solution ([5]; concentration 1% w/v)	State of Peptide Under Different pH Conditions: solution ([5]; concentration 2% w/v)	pH needed to stay in solution [5]	dissolution and gel formation [7]	Molecule	liquid-to-solid phase transition ability [2]	cell proliferation on the peptide gel (L929 cells [3])	cell viability within the gel (L929 cells [6])	time to complete hemostasis (New Zealand rabbits; 1.25% w/v peptide solution with 1 mg/mL NaHCO3, about 1 mL on rabbit liver wound) [s]	time to complete hemostasis (New Zealand rabbits; 2.5% w/v peptide solution, about 1 mL on rabbit liver wound) [s]	bleeding after rinsing off the hydrogel (New Zealand rabbits; surface hydrogel rinsed off with normal saline after 2 minutes of hemostasis)
easily neutralized	significantly higher	better mechanical properties	pH ≥ 6.29, gel	pH ≥ 3.25, gel	pH < 6.29, solution	pH < 3.25, solution			Ac-PRVDVRVRVRVDP-NH2 [PRRVDP13, AC-PRVDVRVRVRVDP-NH2]	good liquid-to-solid phase transition ability	good proliferation	majority of cells were viable	≤ 50	≤ 50	no new bleeding appeared
relatively more difficult to neutralize			pH ≥ 3.40, gel		pH < 3.40, solution		< 3		CC(=O)N[C@@H](CCCNC(=N)N)C(=O)N[C@@H](C)C(=O)N[C@@H](CC(=O)O)C(=O)N[C@@H](C)C(=O)N[C@@H](CCCNC(=N)N)C(=O)N[C@@H](C)C(=O)N[C@@H](CC(=O)O)C(=O)N[C@@H](C)C(=O)N[C@@H](CCCNC(=N)N)C(=O)N[C@@H](C)C(=O)N[C@@H](CC(=O)O)C(=O)N[C@@H](C)C(=O)N[C@@H](CCCNC(=N)N)C(=O)N[C@@H](C)C(=O)N[C@@H](CC(=O)O)C(=O)N[C@@H](C)C(N)=O [RADA16, AC-RADARADARADARADA-NH2, reference compound]						
			pH ≥ 4.05, gel	pH ≥ 3.20, gel	pH < 4.05, solution	pH < 3.20, solution		dissolved easily and formed a good gel	Ac-PRVDVRVKVRVDP-NH2 [AC-PRVDVRVKVRVDP-NH2]						
relatively more difficult to neutralize			pH ≥ 3.50, gel		pH < 3.50, solution		< 3		Ac-PRVDVRVDP-NH2 [PRVDP9, AC-PRVDVRVDP-NH2, reference compound]						
